Experimental data taken from ChEMBL document CHEMBL4000174, “Synthesis and antitumor activity of novel substituted uracil-1'(N)-acetic acid ester derivatives of 20(S)-camptothecins” (Eur J Med Chem, 2017).
pIC50: −log10 of the molar value. The source made the active and inactive calls. The calls are words filed in the database; no cut-off is given here.

Legend:
A549 [1] = experiment: Induction of apoptosis in human A549 cells assessed as increase in Bax protein level at 8 to 75 nM by Western blot method; assay type: functional, cell-based
H22 = experiment: Antitumor activity against mouse H22 cells implanted in Kunming mouse assessed as tumor growth inhibition at 40 mg/kg, ip administered on day 1 and day 5 relative to control relative to control; assay type: functional; conditions: read-out: TGI
A549 [2] = experiment: Induction of apoptosis in human A549 cells assessed as necrotic cells at 8 nM after 24 hrs by Annexin V-FITC/propidium iodide staining based flow cytometry (reference value: 7.62%); assay type: functional
A2780 = experiment: Antiproliferative activity against human A2780 cells after 96 hrs by MTT assay; assay type: functional, cell-based; conditions: A2780, 96 h
A549 [3] = experiment: Induction of apoptosis in human A549 cells assessed as early apoptotic cells at 8 nM after 24 hrs by Annexin V-FITC/propidium iodide staining based flow cytometry (reference value: 0.50%); assay type: functional
A549 [4] = experiment: Induction of apoptosis in human A549 cells assessed as late apoptotic cells at 75 nM after 24 hrs by Annexin V-FITC/propidium iodide staining based flow cytometry (reference value: 2.47%); assay type: functional
Mus musculus [5] = experiment: Toxicity in BALB/c nude mouse xenografted with human BGC823 cells assessed as tumor volume at 60 mg/kg, ip administered once in a week for two weeks starting from 6 days post tumor transplantation and measured every 3 days during compound dosing for 15 days (reference value: […]); conditions: in vivo, 360 h
A549 [6] = experiment: Induction of apoptosis in human A549 cells assessed as necrotic cells at 25 nM after 24 hrs by Annexin V-FITC/propidium iodide staining based flow cytometry (reference value: 7.62%); assay type: functional
A549 [7] = experiment: Induction of apoptosis in human A549 cells assessed as viable cells at 8 nM after 24 hrs by Annexin V-FITC/propidium iodide staining based flow cytometry (reference value: 89.41%); assay type: functional; conditions: A549, 24 h, read-out: Activity
A549 [8] = experiment: Induction of apoptosis in human A549 cells assessed as decrease in Bcl-2 protein level at 8 to 75 nM by Western blot method; assay type: functional, cell-based
A549 [9] = experiment: Induction of apoptosis in human A549 cells assessed as early apoptotic cells at 25 nM after 24 hrs by Annexin V-FITC/propidium iodide staining based flow cytometry (reference value: 0.50%); assay type: functional
Bel-7402 [10] = experiment: Antitumor activity against human Bel7402 cells xenografted in BALB/c nude mouse assessed as tumor growth inhibition at 60 mg/kg, ip administered once in a week for two weeks starting from 6 days post tumor transplantation measured 27 to 30 days post tumor transplantation relative to control; assay type: functional; conditions: Bel-7402, ip, read-out: TGI
Escherichia coli = experiment: Inhibition of Escherichia coli topoisomerase 1-mediated relaxation of supercoiled Pcmv-6 plasmid DNA at 30 to 50 uM after 30 mins by ethidium bromide staining based agarose gel electrophoretic analysis
Mus musculus [11] = experiment: Toxicity in Kunming mouse implanted with mouse H22 cells assessed as body weight at 100 mg/kg, ip administered once (reference value: 31.1 g); assay type: organism-based; conditions: in vivo
BGC-823 [12] = experiment: Antitumor activity against human BGC823 cells xenografted in BALB/c nude mouse assessed as tumor volume at 60 mg/kg, ip administered once in a week for two weeks starting from 6 days post tumor transplantation measured 27 to 30 days post tumor transplantation relative to control; assay type: functional
HCT-8 = experiment: Antiproliferative activity against human HCT8 cells after 96 hrs by MTT assay; assay type: functional, cell-based; conditions: HCT-8, 96 h
BGC-823 [13] = experiment: Antiproliferative activity against human BGC823 cells after 96 hrs by MTT assay; assay type: functional, cell-based; conditions: BGC-823, 96 h
Bel-7402 [14] = experiment: Antitumor activity against human Bel7402 cells xenografted in BALB/c nude mouse assessed as tumor volume at 60 mg/kg, ip administered once in a week for two weeks starting from 6 days post tumor transplantation measured 27 to 30 days post tumor transplantation relative to control; assay type: functional
Mus musculus [15] = experiment: Toxicity in BALB/c nude mouse xenografted with human BGC823 cells assessed as body weight at 60 mg/kg, ip administered once in a week for two weeks starting from 6 days post tumor transplantation and measured every 3 days during compound dosing for 15 days (reference value: 23.6 g); assay type: organism-based; conditions: in vivo, 360 h
A549 [16] = experiment: Induction of apoptosis in human A549 cells assessed as viable cells at 25 nM after 24 hrs by Annexin V-FITC/propidium iodide staining based flow cytometry (reference value: 89.41%); assay type: functional; conditions: A549, 24 h, read-out: Activity
Mus musculus [17] = experiment: Toxicity in BALB/c nude mouse xenografted with human BGC823 cells assessed as tumor volume at 30 mg/kg, ip administered once in a week for two weeks starting from 6 days post tumor transplantation and measured every 3 days during compound dosing for 15 days (reference value: […]); conditions: in vivo, 360 h
A549 [18] = experiment: Induction of apoptosis in human A549 cells assessed as cell shrinkage after 24 hrs by phase contrast microscopy; assay type: functional, cell-based
A549 [19] = experiment: Cell cycle arrest in human A549 cells assessed as accumulation at S phase at 8 nM after 24 hrs by propidium iodide staining based flow cytometry (reference value: 32.80%); assay type: functional
BGC-823 [20] = experiment: Antitumor activity against human BGC823 cells xenografted in BALB/c nude mouse assessed as tumor growth inhibition at 30 mg/kg, ip administered once in a week for two weeks starting from 6 days post tumor transplantation measured 27 to 30 days post tumor transplantation relative to control; assay type: functional; conditions: BGC-823, ip, read-out: TGI
Mus musculus [21] = experiment: Toxicity in BALB/c nude mouse xenografted with human BGC823 cells assessed as mouse survival at 30 mg/kg, ip administered once in a week for two weeks starting from 6 days post tumor transplantation; assay type: organism-based; conditions: in vivo, 144 h
BGC-823 [22] = experiment: Antitumor activity against human BGC823 cells xenografted in BALB/c nude mouse assessed as tumor volume at 30 mg/kg, ip administered once in a week for two weeks starting from 6 days post tumor transplantation measured 27 to 30 days post tumor transplantation relative to control; assay type: functional
Bel-7402 [23] = experiment: Antitumor activity against human Bel7402 cells xenografted in BALB/c nude mouse assessed as tumor growth inhibition at 30 mg/kg, ip administered once in a week for two weeks starting from 6 days post tumor transplantation measured 27 to 30 days post tumor transplantation relative to control; assay type: functional; conditions: Bel-7402, ip, read-out: TGI

With `CCc1c2c(nc3ccccc13)-c1cc3c(c(=O)n1C2)COC(=O)[C@@]3(CC)OC(=O)Cn1cc(F)c(=O)[nH]c1=O` the Activity (A549 [1]) was “Active”, the inhibition in vivo at 40 mg/kg (H22) was 57.5% and the Activity (A549 [2]) was 3.74%. The pIC50 (A2780) was 6.83, the Activity (A549 [3]) was 3% and the Activity (A549 [4]) was 34.98%. It also gave a tumor volume (Mus musculus [5]) of 143 mm³, an Activity (A549 [6]) of 9.9% and a viability at 0.008 µM (A549 [7]) of 80.2%. The Activity (A549 [8]) was “Active”, the Activity (A549 [9]) was 10.07% and the inhibition in vivo at 60 mg/kg (Bel-7402 [10]) was 81.5%. For the same compound, the inhibition (Escherichia coli) was “Active”, the Activity (Mus musculus [11]) was 29.8 g and the T/C (BGC-823 [12]) was 5.54%. For the same compound, the pIC50 (HCT-8) was 8.15, the pIC50 (BGC-823 [13]) was 7.49 and the T/C (Bel-7402 [14]) was 24.53%. It also gave an Activity (Mus musculus [15]) of 21.9 g, a viability at 0.025 µM (A549 [16]) of 53.4% and a tumor volume (Mus musculus [17]) of 334 mm³. The Activity (A549 [18]) was “Dose-dependent effect”, the Activity (A549 [19]) was 36.5% and the inhibition in vivo at 30 mg/kg (BGC-823 [20]) was 89.7%. For the same compound, the Activity (Mus musculus [21]) was “Non-Toxic”, the T/C (BGC-823 [22]) was 12.65% and the inhibition in vivo at 30 mg/kg (Bel-7402 [23]) was 62.6%.
